# Assay results as given in US11981661B2, “Heterocyclic compounds” (Hoffmann-La Roche Inc., priority 2020, dated 2024).
# pIC50: −log10 of the molar value.
# Target: T1, MAGL (Homo sapiens, UniProt Q99685)
# T1 sequence (Q99685 1-303): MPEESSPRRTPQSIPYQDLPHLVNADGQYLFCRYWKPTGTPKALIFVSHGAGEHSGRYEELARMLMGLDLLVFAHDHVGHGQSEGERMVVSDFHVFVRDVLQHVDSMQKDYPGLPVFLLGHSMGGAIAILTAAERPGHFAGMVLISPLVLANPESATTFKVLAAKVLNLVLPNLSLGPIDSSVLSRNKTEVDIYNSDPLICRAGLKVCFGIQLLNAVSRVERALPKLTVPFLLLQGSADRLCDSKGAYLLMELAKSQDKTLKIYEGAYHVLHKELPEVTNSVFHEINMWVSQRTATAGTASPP
# Test: 2-AG assay (MAGL inhibitory activity, hydrolysis of 2-arachidonoylglycerol followed by mass spectrometry)
# Assay type: biochemical
# Settings: 50 pM MAGL, 8 μM 2-arachidonoylglycerol, 15 min preincubation, 30 min incubation at RT, concentration range 12.5 μM to 0.8 pM
# Method: Compounds were profiled for MAGL inhibitory activity by determining the enzymatic activity by following the hydrolysis of the natural substrate 2-arachidonoylglycerol resulting in arachidonic acid, which can be followed by mass spectrometry. This assay is hereinafter abbreviated “2-AG assay”.
# The 2-AG assay was carried out in 384 well assay plates (PP, Greiner Cat #784201) in a total volume of 20 μL. Compound dilutions were made in 100% DMSO (VWR Chemicals 23500.297) in a polypropylene plate in 3-fold dilution steps to give a final concentration range in the assay from 12.5 μM to 0.8 pM. 0.25 μL compound dilutions (100% DMSO) were added to 9 μL MAGL in assay buffer (50 mM TRIS (GIBCO, 15567-027), 1 mM EDTA (Fluka, 03690-100 mL), 0.01% (v/v) Tween. After shaking, the plate was incubated for 15 min at RT. To start the reaction, 10 μL 2-arachidonoylglycerol in assay buffer was added. The final concentrations in the assay was 50 pM MAGL and 8 μM 2-arachidonoylglyerol. After shaking and 30 min incubation at RT, the reaction was quenched by the addition of 40 μL of ACN containing 4 μM of d8-arachidonic acid. The amount of arachidonic acid was traced by an online SPE system (Agilent Rapidfire) coupled to a triple quadrupole mass spectrometer (Agilent 6460). A C18 SPE cartridge (G9205A) was used in an ACN/water liquid setup. The mass spectrometer was operated in negative electrospray mode following the mass transitions 303.1→259.1 for arachidonic acid and 311.1→267.0 for d8-arachidonic acid. The activity of the compounds was calculated based on the ratio of intensities [arachidonic acid/d8-arachidonic acid].
row,pIC50,SMILES
1,9.00,"CC(C)(Oc1ccc(C2CN(C(=O)CC[C@@H]3COC(=O)N3)C2)cc1)C(F)(F)F [Example 25, (4R)-4-[3-Oxo-3-[3-[4-(2,2,2-trifluoro-1,1-dimethyl-ethoxy)phenyl]azetidin-1-yl]propyl]oxazolidin-2-one]"
2,8.40,"O=C1N[C@H](CCC(=O)N2CC(OCc3ccc(S(F)(F)(F)(F)F)cc3F)C2)CO1 [Example 26, (4R)-4-[3-[3-[[2-Fluoro-4-(pentafluoro-λ^6-sulfanyl)phenyl]methoxy]azetidin-1-yl]-3-oxo-propyl]oxazolidin-2-one]"
3,9.30,"O=C1N[C@H](CCC(=O)N2CC3(CC(Cc4ccc(F)cc4F)C3)C2)CO1 [Example 27, (4R)-4-[3-[6-[(2,4-Difluorophenyl)methyl]-2-azaspiro[3.3]heptan-2-yl]-3-oxo-propyl]oxazolidin-2-one]"
4,8.00,"O=C1N[C@H](CCC(=O)N2CC(c3ccc(Oc4ccccc4Cl)nc3)C2)CO1 [Example 28, (4R)-4-[3-[3-[6-(2-Chlorophenoxy)-3-pyridyl]azetidin-1-yl]-3-oxo-propyl]oxazolidin-2-one]"
5,8.22,"O=C1N[C@H](CCC(=O)N2CC3(CC(Oc4ccc(F)cc4Cl)C3)C2)CO1 [Example 29, (4R)-4-[3-[6-(2-Chloro-4-fluoro-phenoxy)-2-azaspiro[3.3]heptan-2-yl]-3-oxo-propyl]oxazolidin-2-one]"
6,9.00,"O=C1N[C@H](CCC(=O)N2CC(c3ccc(Oc4ccc(F)cc4)cc3)C2)CO1 [Example 30, (4R)-4-[3-[3-[4-(4-Fluorophenoxy)phenyl]azetidin-1-yl]-3-oxo-propyl]oxazolidin-2-one]"
7,7.08,"O=C1N[C@H](CCC(=O)N2CC(c3ccc(Oc4ccc(OC(F)(F)F)cc4)nc3)C2)CO1 [Example 31, (4R)-4-[3-Oxo-3-[3-[6-[4-(trifluoromethoxy)phenoxy]-3-pyridyl]azetidin-1-yl]propyl]oxaazolidin-2-one]"
8,7.77,"O=C1N[C@H](CCC(=O)N2CC3(CC(Oc4cncc(C(F)(F)F)n4)C3)C2)CO1 [Example 32, (4R)-4-[3-Oxo-3-[6-[6-(trifluoromethyl)pyrazin-2-yl]oxy-2-azaspiro[3.3]heptan-2-yl]propyl]oxazolidin-2-one]"
9,7.92,"O=C1N[C@H](CCC(=O)N2CC(C#Cc3cccc(Cl)c3)C2)CO1 [Example 33, (4R)-4-[3-[3-[2-(3-Chlorophenyl)ethynyl]azetidin-1-yl]-3-oxo-propyl]oxazolidin-2-one]"
10,7.85,"O=C1N[C@H](CCC(=O)N2CC(c3ccc(N4CCC(C(F)(F)F)C4)nc3)C2)CO1 (stereo partly drawn) [Example 34, (4R)-4-[3-Oxo-3-[3-[6-[3-(trifluoromethyl)pyrrolidin-1-yl]-3-pyridyl]azetidin-1-yl]propyl]oxazolidin-2-one]"
11,7.89,"CC(C[C@@H]1COC(=O)N1)C(=O)N1CC(OCc2ccc(C(F)(F)F)cc2F)C1 (stereo partly drawn) [Example 35, (4R)-4-[3-[3-[[2-Fluoro-4-(trifluoromethyl)phenyl]methoxy]azetidin-1-yl]-2-methyl-3-oxo-propyl]oxazolidin-2-one]"
12,5.39,"O=C(CCc1cnn[nH]1)N1CC(OCc2ccc(C(F)(F)F)cc2F)C1 [Example 36, 1-(3-((2-Fluoro-4-(trifluoromethyl)benzyl)oxy)azetidin-1-yl)-3-(1H-1,2,3-triazol-5-yl)propan-1-one]"
13,6.47,"O=C(CCc1cnn[nH]1)N1CC(c2ccc(C3(C(F)(F)F)CC3)cc2)C1 [Example 37, 3-(1H-1,2,3-Triazol-5-yl)-1-(3-(4-(1-(trifluoromethyl)cyclo-propyl)phenyl)azetidin-1-yl)propan-1-one]"
14,6.63,"CC(C)(Oc1ccc(C2CN(C(=O)CCc3cnn[nH]3)C2)cc1)C(F)(F)F [Example 38, 3-(1H-1,2,3-Triazol-5-yl)-l-(3-(4-((1,1,1-trifluoro-2-methylpropan-2-yl)oxy)phenyl)azetidin-1-yl)propan-1-one]"
15,7.24,"O=C(CCCc1cnn[nH]1)N1CC(OCc2ccc(C(F)(F)F)cc2F)C1 [Example 39, 1-[3-[[2-Fluoro-4-(trifluoromethyl)phenyl]methoxy]azetidin-1-yl]-4-(1H-triazol-5-yl)butan-1-one]"
16,7.68,"O=C(CCCc1cnn[nH]1)N1CC(c2ccc(C3(C(F)(F)F)CC3)cc2)C1 [Example 40, 4-(1H-Triazol-5-yl)-1-[3-[4-[1-(trifluoro-methyl)cyclopropyl]phenyl]azetidin-1-yl]butan-1-one]"

row,pIC50,SMILES
1,7.64,"CC(C)(Oc1ccc(C2CN(C(=O)CCCc3cnn[nH]3)C2)cc1)C(F)(F)F [Example 41, 4-(1H-Triazol-5-yl)-1-[3-[4-(2,2,2-trifluoro-1,1-dimethyl-ethoxy)phenyl]azetidin-1-yl]butan-1-one]"
2,6.66,"O=C(CCCc1cnn[nH]1)N1CC(c2ccc(Oc3ccc(OC(F)(F)F)cc3)nc2)C1 [Example 42, 4-(1H-Triazol-5-yl)-1-[3-[6-[4-(trifluoro-methoxy)phenoxy]-3-pyridyl]azetidin-1-yl]butan-1-one]"
3,5.16,"O=C(CCCc1cnn[nH]1)N1CC2(CC(Oc3cncc(C(F)(F)F)n3)C2)C1 [Example 43, 4-(1H-Triazol-5-yl)-1-[6-[6-(trifluoromethyl)pyrazin-2-yl]oxy-2-azaspiro[3.3]heptan-2-yl]butan-1-one]"
4,7.21,"O=C(CCCc1cnn[nH]1)N1CC(C#Cc2cccc(Cl)c2)C1 [Example 44, 1-[3-[2-(3-Chlorophenyl)ethynyl]azetidin-1-yl]-4-(1H-triazol-5-yl)butan-1-one]"
5,6.49,"O=C(CCCc1cnn[nH]1)N1CC(c2ccc(N3CC(OCC(F)(F)F)C3)cc2)C1 [Example 46, 4-(1H-Triazol-5-yl)-1-[3-[4-[3-(2,2,2-trifluoroethoxy)azetidin-1-yl]phenyl]azetidin-1-yl]butan-1-one]"
6,6.37,"O=C(CCc1ccn[nH]1)N1CC(OCc2ccc(C(F)(F)F)cc2F)C1 [Example 47, 1-[3-[[2-Fluoro-4-(trifluoromethyl)phenyl]methoxy]azetidin-1-yl]-3-(1H-pyrazol-5-yl)propan-1-one]"
7,6.22,"O=C(CCc1cccc(=O)[nH]1)N1CC(OCc2ccc(C(F)(F)F)cc2F)C1 [Example 48, 6-[3-[3-[[2-Fluoro-4-(trifluoromethyl)phenyl]methoxy]azetidin-1-yl]-3-oxo-propyl]-1H-pyridin-2-one]"
8,6.22,"O=C1CCCC(CCC(=O)N2CC(OCc3ccc(C(F)(F)F)cc3F)C2)N1 (stereo not shown) [Example 49, 6-[3-[3-[[2-Fluoro-4-(trifluoromethyl)phenyl]methoxy]azetidin-1-yl]-3-oxo-propyl]piperidin-2-one]"
9,6.78,"O=C1CC[C@@H](COC(=O)N2CC(OCc3ccc(C(F)(F)F)cc3F)C2)N1 [Example 52, [(2S)-5-Oxopyrrolidin-2-yl]methyl 3-[[2-fluoro-4-(trifluoromethyl)phenyl]methoxy]azetidine-1-carboxylate]"
10,6.04,"O=C1CC[C@H](COC(=O)N2CC(OCc3ccc(C(F)(F)F)cc3F)C2)N1 [Example 53, [(2R)-5-Oxopyrrolidin-2-yl]methyl 3-[[2-fluoro-4-(trifluoromethyl)phenyl]methoxy] azetidine-1-carboxylate]"
11,7.44,"O=C1N[C@H](COC(=O)N2CC(OCc3ccc(C(F)(F)F)cc3F)C2)CO1 [Example 54, [(4S)-2-Oxooxazolidin-4-yl]methyl 3-[[2-fluoro-4-(trifluoromethyl)phenyl]methoxy] azetidine-1-carboxylate]"
12,7.48,"O=C1N[C@@H](COC(=O)N2CC(OCc3ccc(C(F)(F)F)cc3F)C2)CO1 [Example 55, [(4R)-2-Oxooxazolidin-4-yl]methyl 3-[[2-fluoro-4-(trifluoromethyl)phenyl]methoxy] azetidine-1-carboxylate]"
13,8.30,"O=C1N[C@H](COC(=O)N2CC(c3ccc(C4(C(F)(F)F)CC4)cc3)C2)CO1 [Example 56, [(4S)-2-Oxooxazolidin-4-yl]methyl 3-[4-[1-(trifluoromethyl)cyclopropyl]phenyl] azetidine-1-carboxylate]"
14,8.70,"O=C1N[C@H](COC(=O)N2CC3(CC(Cc4ccc(F)cc4F)C3)C2)CO1 [Example 57, [(4S)-2-Oxooxazolidin-4-yl]methyl 6-[(2,4-difluorophenyl)methyl]-2-azaspiro[3.3]heptane-2-carboxylate]"
15,8.40,"O=C1N[C@H](COC(=O)N2CC(c3ccc(Oc4ccc(F)cc4)cc3)C2)CO1 [Example 58, [(4S)-2-Oxooxazolidin-4-yl]methyl 3-[4-(4-fluorophenoxy)phenyl]azetidine-1-carboxylate]"
